Measured values as given in patent publication US7842294B2, “Proteins belonging to the Bcl-2 family and fragments thereof, and their use in cancer patients” (Survac APS, priority 2003, dated 2010).
Where “and” joins values, the source holds several entries; their conditions need not be identical. Equal values may be shown once. Read-outs that look alike come from different tables or passages of the source. Values belong to the sequence of their own block, whether it stands above or below them. Ends that are not written are not given here.

Columns and labels:
HLA-A2 = target: T1, HLA-A2 (Homo sapiens, UniProt P04439, D140Y/D185E/D98H/E176V/E277Q/G131W/G231S/I119V/I121R/I166T/I218V/L300P/L318F/N151K/N90K/P208A/P217A/Q86G/Q94H/R138H/R169H/T345S); test: Assembly assay for peptide binding to MHC class I molecules (stabilisation of HLA from TAP-deficient T2 cells); settings: recovery of HLA-A2 measured at 50, 5, 0.5, 0.05 μM peptide
T1 construct: empty HLA molecules released upon cell lysis, from the TAP-deficient cell line T2; endogenous in cells; host or cells: T2 (TAP-deficient cell line), metabolically labelled with [35S]-methionine and lysed
Method: This assembly assay is carried out as described previously (2), and it is based on stabilisation of the HLA molecule after loading of peptide to the peptide transporter deficient cell line T2. Subsequently, correctly folded stable HLA heavy chains are immunoprecipitated using conformation dependent antibodies and the peptide binding is quantitated.
The binding affinity of the synthetic peptides (Invitrogen, Carlsbad, Calif., USA) to HLA-A2 molecules, metabolically labelled with [^35S]-methionine, was measured in the assembly assay, as described previously. The assay is based on peptide-mediated stabilisation of empty HLA molecules released upon cell lysis, from the TAP-deficient cell line T2. Stably folded HLA-molecules were immune-precipitated using the HLA class I-specific, conformation-dependent mAb W6/32, and separated by isoelectric focusing (IEF) gel electrophoresis. MHC heavy chain bands were quantified using the ImageGauge Phosphorimager program (FUJI photo film Co., Carrollton, Tex., USA). The intensity of the band is directly related to the amount of peptide-bound class I MHC complex recovered during the assay. Subsequently, the extent of stabilisation of HLA-A2 is directly related to the binding affinity of the added peptide. The recovery of HLA-A2 was measured in the presence of 50, 5, 0.5, 0.05 μM of the relevant peptide. The C50 value was calculated for each peptide as the peptide concentration sufficient for half maximal stabilisation.
The amino acid sequence of the Bcl-2 protein was screened for the most probable HLA-A2 nona- and decamer peptide epitopes, using the main HLA-A2 specific anchor residues (2). […] The assembly assay is based on stabilisation of the class I molecule after loading of different concentrations of peptide to the TAP-deficient cell line T2. Subsequently correctly folded stable MHC heavy chains are immunoprecipitated using conformation-dependent antibodies.

[1] = tested on: antigen-specific CTL in PBL; test: Granzyme B (GrB) ELISPOT; format: cell-based, human
Method: The Granzyme B (GrB) ELISPOT assay was used for measuring antigen-specific CTL cytotoxicity as described. Briefly, nitrocellulose bottomed 96-well plates (MultiScreen MAIP N45, Millipore) were coated with GrB Capture Antibody (BD Biosciences, Brondby, Denmark). The wells were washed and blocked by X-vivo medium with 5% human serum. The cells were added at different cell concentrations. T2 cells and peptides were then added to each well and the plates were incubated 4 hours, medium was discarded and the wells were washed prior to addition of GrB Detection Antibody (BD Biosciences). The plates were incubated for 2 hours, washed and Avidin horseradish peroxidase (BD Biosciences) was added to each well. Plates were incubated at RT for 1 hour AEC Substrate Reagent (BD Biosciences) was added to each well and incubated at RT for 5-10 min. The reaction was terminated by washing with tap-water upon the emergency of red spots. The spots were counted and the peptide specific CTL frequency was calculated like for the INF-γ ELISPOT. All assays were performed in duplicate or triplicates for each peptide antigen.

CD8+ T cells from PBL = test: FACS analysis with Pro5 MHC pentamer staining; format: cell-based, human; settings: breast cancer patient no. 36, PBL stimulated once in vitro, HLA-A2/Bcl-XL173-182 pentamer
[2] = tested on: peptide epitope-specific interferon-γ releasing effector cells in PBL; test: IFN-γ ELISPOT on PBL stimulated once in vitro with peptide; format: cell-based, human; settings: for healthy individuals with CTL response: 12 healthy HLA-A2 positive individuals; for CTL response in cancer patients of different origin (in words): PBL from HLA-matched cancer patients; for breast cancer patients hosting an immune response: eighteen HLA-A2+ breast cancer patients; for breast cancer patients hosting an immune response / melanoma patients hosting an immune response: responder >25 spots per 10^5 cells; for melanoma patients hosting an immune response: six HLA-A2+ melanoma patients; for patients with spontaneous CTL response / patients with spontaneous CTL response (%): PBL from 15 HLA-A2 positive breast cancer patients; for pancreatic cancer patients with CTL response: two HLA-A2 positive pancreatic cancer patients; for pancreatic cancer patients with response: two HLA-A3+ pancreatic cancer patients
Method: To extend the sensitivity of the ELISPOT assay, PBL were stimulated once in vitro prior to analysis. At day 0, PBL or crushed lymph nodes were thawed and plated in 2 ml/well at a concentration of 2×10^6 cells in 24-well plates (Nunc, Denmark) in X-vivo medium (Bio Whittaker, Walkersville, Md.), 5% heat-inactivated human serum, and 2 mM of L-glutamine in the presence of 10 μM of peptide. Two days later 20 IU/ml recombinant interleukin-2 (IL-2) (Chiron, Ratingen, Germany) was added to the cultures. The cultured cells were tested for reactivity in the ELISPOT on day 12.
The ELISPOT assay was used to quantify peptide epitope-specific interferon-γ releasing effector cells as described previously (4). Briefly, nitrocellulose bottomed 96-well plates (MultiScreen MAIP N45, Millipore, Hedehusene, Denmark) were coated with anti-IFN-γ antibody (1-D1K, Mabtech, Nacka, Sweden). The wells were washed, blocked by X-vivo medium, and cells added in duplicates at different cell concentrations. Peptides were then added to each well and the plates were incubated overnight. The following day, media was discarded and the wells were washed prior to addition of biotinylated secondary antibody (7-B6-1-Biotin, Mabtech). The plates were incubated for 2 hours, washed and Avidin-enzyme conjugate (AP-Avidin, Calbiochem, Life Technologies) was added to each well. Plates were incubated at RT for 1 hour and the enzyme substrate NBT/BCIP (Gibco, Life Technologies) was added to each well and incubated at RT for 5-10 min. The reaction was terminated by washing with tap-water upon the emergency of dark purple spots. The spots were counted using the ImmunoSpot® Series 2.0 Analyzer (CTL Analyzers, LLC, Cleveland, US) and the peptide specific CTL frequency could be calculated from the numbers of spot-forming cells. All assays were performed in triplicates for each peptide antigen.

[3] = C50 (concentration of the peptide required for half maximal binding to HLA-A2)
[4] = read-out: C50 (concentration of the peptide required for half maximal binding to HLA-A2)
[5] = six HLA-A3+ breast cancer patients, 3×10^5 cells per well, Mcl-1 study
[6] = four HLA-A1+ breast cancer patients
[7] = seven HLA-A1+ melanoma patients
[8] = six healthy HLA-A1+ individuals

Sequence: KTLLSLALV [bcl218]
EC50 (HLA-A2; [3]): 2000 nM

Sequence: YLNDHLEPWI (Peptide derived from Bcl-XL) [Bcl-XL173-182]
frequency of peptide specific CTL (GrB ELISPOT) ([1]; Bcl-XL reactive breast cancer patients no. 35 and 36): 50-100 peptide specific CTL per 3×10^5 cells
GrB release in control patient ([1]; breast cancer patient no. 17): no GrB release was detected
pentamer positive T cells among CD8+ T cells (CD8+ T cells from PBL): 0.24%
healthy individuals with CTL response [2]: no responses were detected
CTL response in cancer patients of different origin (in words) [2]: strong and frequent CTL responses
breast cancer patients hosting an immune response [2]: nine out of eighteen
peptide specific, IFNγ secreting CD8+ T cells ([2]; same CD8+ culture of breast cancer patient no. 36): around 1.4%
melanoma patients hosting an immune response [2]: two out of six

EC50 (HLA-A2; [4]): 2000 nM
Sequence: NIALWMTEYL [bcl172]
patients with spontaneous CTL response [2]: eight
patients with spontaneous CTL response (%) [2]: 50%

C50 (concentration of the peptide required for half maximal binding to HLA-A2) (HLA-A2): did not bind
Sequence: SLKTLLSLAL [bcl216, SLKTLLSLAL]

Sequence: RIAAWMATYL (Peptide derived from Bcl-XL) [Bcl-XL165-174]
healthy individuals with CTL response [2]: no responses were detected
CTL response in cancer patients of different origin (in words) [2]: strong and frequent CTL responses
breast cancer patients hosting an immune response [2]: four
melanoma patients hosting an immune response [2]: two
pancreatic cancer patients with CTL response [2]: one

Sequence: AAAGPALSPV [bcl80]
EC50 (HLA-A2; [3]): 36000 nM

EC50 (HLA-A2; [4]): 1000 nM
Sequence: LLSLALVGA [bcl220]

Sequence: RLLFFAPTR (Peptide derived from Mcl-1) [Mcl-195-103]
healthy donors with response ([2]; 10 healthy HLA-A3+ individuals): no responses were detected
CTL response in cancer patients of different origin (in words) [2]: strong and frequent CTL responses
breast cancer patients with response [2, 5]: five
B-CLL patients with response ([2]; six HLA-A3+ patients suffering from B-CLL): two
pancreatic cancer patients with response ([2]; Mcl-1 study): two out of two

Sequence: RIAAWMATY (Peptide derived from Bcl-XL) [Bcl-XL165-173]
multiple myeloma patients with response ([2]; HLA-A3+ multiple myeloma patients): one out of four
CTL response in cancer patients of different origin (in words) [2]: strong and frequent CTL responses
breast cancer patients with response ([2]; five HLA-A3+ breast cancer patients, 10^5 cells per well): four out of five
melanoma patients with response ([2]; four HLA-A3+ melanoma patients): four out of four
healthy individuals with response ([2]; seven HLA-A3+ healthy individuals): not able to detect a response
pancreatic cancer patients with response ([2]; Bcl-XL study): two out of two

EC50 (HLA-A2; [4]): 3000 nM
Sequence: WLSLKTLLSL [bcl214]
GrB release in controls ([1]; breast cancer patient no. 16 and healthy control h1): no GrB release was detected
patients with spontaneous CTL response [2]: eleven
patients with spontaneous CTL response (%) [2]: ≈ 75%
CLL patients with Bcl-2 response ([2]; ten HLA-A2 positive CLL patients, reactivity against bcl208 and bcl214, not broken down by peptide): five
AML patients with Bcl-2 response ([2]; three AML patients, reactivity against bcl208 and bcl214, not broken down by peptide): two
pancreatic cancer patients with CTL response [2]: both

EC50 (HLA-A2; [4]): 1000 nM
Sequence: SLALVGACI [bcl222]

Sequence: PAEEEEDDLY (Peptide derived from Mcl-1) [Mcl-1166-175]
CTL response in cancer patients of different origin (in words) [2]: CTL responses were detected
breast cancer patients with response [2, 6]: one of these
melanoma patients with response [2, 7]: another of these
healthy donors with response [2, 8]: no responses were detected

Sequence: QSLEIISRY (Peptide derived from Mcl-1) [Mcl-1177-185]
CTL response in cancer patients of different origin (in words) [2]: CTL responses were detected
breast cancer patients with response [2, 6]: three out of four
melanoma patients with response [2, 7]: one out of seven
healthy donors with response [2, 8]: no responses were detected

Sequence: VLVSRIAAWM (Peptide derived from Bcl-XL) [Bcl-XL161-170]
healthy individuals with CTL response [2]: no responses were detected
CTL response in cancer patients of different origin (in words) [2]: strong and frequent CTL responses
breast cancer patients hosting an immune response [2]: six
pancreatic cancer patients with CTL response [2]: one

Sequence: RLKRDWLVK (Modified Mcl-1 peptide) [Mcl-1300-308L2]
breast cancer patients with spontaneous immune response ([2]; number examined not given, data not shown): two

Sequence: RTKRDWLVK (Peptide derived from Mcl-1) [Mcl-1300-308]
healthy donors with response ([2]; 10 healthy HLA-A3+ individuals): no responses were detected
CTL response in cancer patients of different origin (in words) [2]: strong and frequent CTL responses
breast cancer patients with response [2, 5]: three
pancreatic cancer patients with response ([2]; Mcl-1 study): one of these

EC50 (HLA-A2; [4]): 700 nM
Sequence: ALVGACITL [Bcl224]

EC50 (HLA-A2; [4]): 1000 nM
Sequence: FTARGRFATV [bcl124]

C50 (concentration of the peptide required for half maximal binding to HLA-A2) (HLA-A2): did not bind
Sequence: ELYGPSMRPL [bcl200]

EC50 (HLA-A2; [4]): 1000 nM
Sequence: ALSPVPPVV [Bcl85]

Sequence: WMATYLNDHL (Peptide derived from Bcl-XL) [Bcl-XL169-178]
CTL response in cancer patients of different origin (in words) [2]: weak spontaneous CTL response

Sequence: TAYQSFEQV (Peptide derived from Bcl-XL) [Bcl-XL118-126]
CTL response in cancer patients of different origin (in words) [2]: weak spontaneous CTL response

Sequence: VAFFSFGGAL (Peptide derived from Bcl-XL) [Bcl-XL141-150]
healthy individuals with CTL response [2]: no responses were detected
CTL response in cancer patients of different origin (in words) [2]: strong and frequent CTL responses
breast cancer patients hosting an immune response [2]: Four out of eighteen
melanoma patients hosting an immune response [2]: not able to detect a response
pancreatic cancer patients with CTL response [2]: one of the two

EC50 (HLA-A2; [4]): 20000 nM and 15000 nM
Sequence: YLNRHLHTWI [bcl180]
patients with spontaneous CTL response [2]: four
patients with spontaneous CTL response (%) [2]: ≈ 25%
